Test results reported in PMC11487536 (ACS Pharmacology & Translational Science, 2024).
Where “and” joins values, the source holds several entries; their conditions need not be identical. Identical values can stand only once.

What was measured:
[1] = target: T1, sensing domain of P. fluorescens CtaA (Pseudomonas fluorescens, UniProt Q3K7T6); assay: Thermal shift assay; type: binding; conditions: for Midpoint Transition Temperature in Presence of Ligand, Tm: 5 μM CtaA, ligand 20 μM, pH 5.5
T1 sequence (Q3K7T6 30-277): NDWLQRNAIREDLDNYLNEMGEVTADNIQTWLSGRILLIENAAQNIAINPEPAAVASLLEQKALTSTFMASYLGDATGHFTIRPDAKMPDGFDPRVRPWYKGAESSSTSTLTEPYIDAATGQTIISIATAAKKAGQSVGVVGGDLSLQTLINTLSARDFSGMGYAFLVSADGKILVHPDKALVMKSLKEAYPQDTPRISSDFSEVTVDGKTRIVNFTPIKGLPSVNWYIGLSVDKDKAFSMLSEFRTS

[2] = target: T2, sensing domain of C. jejuni Tlp3 (Campylobacter jejuni, UniProt Q0P864); assay: Thermal shift assay; type: binding; conditions: for Midpoint Transition Temperature in Presence of Ligand, Tm: 10 μM Tlp3, ligand 3 mM (L-valine 10 mM), pH 8.0
T2 sequence (Q0P864 41-290): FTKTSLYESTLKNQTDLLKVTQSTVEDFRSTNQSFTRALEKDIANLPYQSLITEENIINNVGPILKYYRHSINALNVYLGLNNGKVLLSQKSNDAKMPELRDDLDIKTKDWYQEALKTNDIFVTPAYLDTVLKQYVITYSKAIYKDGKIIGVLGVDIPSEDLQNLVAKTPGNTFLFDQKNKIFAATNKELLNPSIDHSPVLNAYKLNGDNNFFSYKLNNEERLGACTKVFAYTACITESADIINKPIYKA

TlpC = target: T3, TlpC (Helicobacter pylori, UniProt O24911); conditions: 25 °C; cited from earlier work
T3 sequence (O24911 32-299): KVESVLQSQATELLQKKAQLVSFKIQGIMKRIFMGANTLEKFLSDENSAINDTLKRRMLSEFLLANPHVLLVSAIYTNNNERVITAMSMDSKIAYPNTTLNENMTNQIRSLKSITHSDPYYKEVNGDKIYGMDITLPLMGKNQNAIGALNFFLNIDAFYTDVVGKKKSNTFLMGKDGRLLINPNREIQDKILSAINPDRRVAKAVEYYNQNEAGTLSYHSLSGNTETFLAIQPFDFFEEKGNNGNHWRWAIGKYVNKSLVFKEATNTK

| Compound | Kd [1] | Midpoint Transition Temperature in Presence of Ligand, Tm [1] | Midpoint Transition Temperature in Presence of Ligand, Tm [2] | ΔHL(T) from ITC (enthalpy of ligand binding) (TlpC) | Kd [2] |
| --- | --- | --- | --- | --- | --- |
| C[C@H](N)C(=O)O [L-Alanine, L-alanine] | 4.6 µM and 3.2 µM | 56.1 ± 0.1 °C | – | – | – |
| CC[C@H](C)[C@H](N)C(=O)O [L-Isoleucine, L-isoleucine] | – | – | 64.5 ± 0.3 °C | – | – |
| C[C@H](O)C(=O)O [L-Lactate, L-lactate] | – | – | – | –21.32 kcal mol^–1 | – |
| CC(C)C[C@H](N)C(=O)O [L-Leucine, L-leucine] | 5 ± 1 µM | 54.7 ± 0.3 °C | 64.2 ± 0.2 °C | – | 222 µM and 90 µM and 116 µM |
| CCC[C@H](N)C(=O)O [L-Norvaline, L-norvaline] | – | – | 63.7 ± 0.3 °C | – | – |
| N[C@@H](CO)C(=O)O [L-Serine, L-serine] | 9 µM and 4 µM | 55.1 ± 0.3 °C | – | – | – |
| CC(C)[C@H](N)C(=O)O [L-Valine, L-valine] | 1.5 µM and 1.2 µM | 57.6 ± 0.2 °C | 64.6 ± 0.3 °C | – | 578 µM and 240 µM and 316 µM |
